Experimental data published in PMC7272617 (Scientific Reports, 2020).
Values after ≈ are worked out from the molar mass of the structure shown. Like-named read-outs stand apart in the source and are kept apart here. Where a SMILES comes first, the peptide text is derived from it. Bridges are numbered along the chain shown (N, C = ends). [ ]: non-standard residue; d: D form. The star is where a group is joined. X1 = CC[C@H](C)CCCCC(=O)*; Dab = NCC[C@H](N)C(=O)O

How the values were obtained:
[1] = test system: all Gram-negative strains; test: Mean MIC and therapeutic index, Gram-negative strains; type: cell-based; conditions: 7 Gram-negative strains of Table 3
Description: (§1) The antimicrobial activity of the peptides was determined against both Gram-positive and -negative bacteria including 14 MDR P. aeruginosa clinical isolates from Bhumibol Adulyadej Hospital (Tables 1 and 3). The minimal inhibitory concentration (MIC) of each peptide was measured according to a modification of the National Committee for Clinical Laboratory Standards (NCCLS) broth microdilution method as previously described. Briefly, bacterial cells in mid-log phase were cultured in Müeller-Hinton broth (MHB) and then diluted to 10^7 CFU/ml. […] Plates were incubated at 37 °C for 24 h, and MICs were defined as the lowest concentration of peptide that prevented visible turbidity. Cultures without peptides and uninoculated MHB were employed as positive and negative controls, respectively. Colony count assays were performed to determine the minimal bactericidal concentrations (MBCs) for determination of time-killing activity. As previously described, a 50 μl aliquot from each non-turbid well identified in the MIC determination experiment was spread on agar plates.
(§2) To further evaluate the global activity of these peptides, the geometric mean (GM) MIC and the therapeutic index (TI) of each were calculated (Table 3). The TI, a widely used parameter to evaluate cell selectivity and specificity of antimicrobial agents, was calculated as the ratio of MHC (the concentration that causes 10% hemolysis) to the geometric mean of MICs[22]. Higher TIs indicated greater cell selectivity and specificity.

[2] = test system: all Gram-positive strains; test: Mean MIC and therapeutic index, Gram-positive strains; type: cell-based; conditions: 5 Gram-positive strains of Table 3
Description: as §1, §2

[3] = test system: Gram-negative and -positive bacterial strains; test: MIC against the panel of Gram-negative and -positive bacterial strains; type: cell-based; conditions: 12 strains of Table 3; result in words
[4] = test system: Pseudomonas aeruginosa ATCC 27853
[5] = test system: Escherichia coli ATCC 25922; conditions: ATCC 25922, 24 h
[6] = test system: Escherichia coli O157:H7 MT strain; conditions: E. coli O157:H7 MT strain; MHB, 37 °C, 24 h
[7] = test system: Shigella sonnei ATCC 11060; conditions: MHB, 37 °C, 24 h
[8] = test system: Salmonella Typhimurium ATCC 13311; conditions: ATCC 13311, 24 h
[9] = test system: Vibrio cholera O1 Inaba DMST 16261; conditions: MHB, 37 °C, 24 h
[10] = test system: Acinetobacter baumannii MT strain; conditions: MT strain, 24 h
[11] = test system: Staphylococcus aureus ATCC 25923; conditions: ATCC 25923, 24 h
[12] = test system: Staphylococcus epidermidis ATCC 12228; conditions: ATCC 12228, 24 h
[13] = test system: Bacillus cereus ATCC 11778; conditions: ATCC 11778, 24 h
[14] = test system: Enterococcus faecalis ATCC 29212; conditions: ATCC 29212, 24 h
[15] = test system: Listeria monocytogenes 10403 s; conditions: 10403 s, 24 h
[16] = test system: MDR P. aeruginosa clinical isolate No.1
[17] = test system: MDR P. aeruginosa clinical isolate No.2; conditions: MDR P. aeruginosa clinical isolate No.2
[18] = test system: MDR P. aeruginosa clinical isolate No.3; conditions: MDR P. aeruginosa clinical isolate No.3
[19] = test system: MDR P. aeruginosa clinical isolate No.4; conditions: MDR P. aeruginosa clinical isolate No.4
[20] = test system: MDR P. aeruginosa clinical isolate No.5; conditions: MDR P. aeruginosa clinical isolate No.5
[21] = test system: MDR P. aeruginosa clinical isolate No.6; conditions: MDR P. aeruginosa clinical isolate No.6
[22] = test system: MDR P. aeruginosa clinical isolate No.7; conditions: MDR P. aeruginosa clinical isolate No.7
[23] = test system: MDR P. aeruginosa clinical isolate No.8; conditions: MDR P. aeruginosa clinical isolate No.8
[24] = test system: MDR P. aeruginosa clinical isolate No.9; conditions: MDR P. aeruginosa clinical isolate No.9
[25] = test system: MDR P. aeruginosa clinical isolate No.10; conditions: MDR P. aeruginosa clinical isolate No.10
[26] = test system: MDR P. aeruginosa clinical isolate No.11; conditions: MDR P. aeruginosa clinical isolate No.11
[27] = test system: MDR P. aeruginosa clinical isolate No.12
[28] = test system: MDR P. aeruginosa clinical isolate No.13; conditions: MDR P. aeruginosa clinical isolate No.13
[29] = test system: MDR P. aeruginosa clinical isolate No.14; conditions: MDR P. aeruginosa clinical isolate No.14
[30] = P. aeruginosa ATCC 27853, MHB, 10^7 CFU/ml, 37 °C, 24 h, no visible turbidity

Row | Compound | GM (Gr.− strains): geometric mean of MIC values from all Gram-negative strains [1] | GM (Gr.+ strains): geometric mean of MIC values from all Gram-positive strains [2] | antibacterial activity against tested microorganisms [3] | MIC ([4]; ATCC 27853, 24 h) | MIC [5] | MIC [6] | MIC [7] | MIC [8] | MIC [9] | MIC [10] | MIC [11] | MIC [12] | MIC [13] | MIC [14] | MIC [15] | MIC [4, 30] | MIC [16] | MIC [17] | MIC [18] | MIC [19] | also measured
1 | CC[C@H](C)[C@H](NC(=O)[C@H](CC(=O)O)NC(=O)[C@H](Cc1ccccc1)NC(=O)[C@H](CC(C)C)NC(=O)CN)C(=O)N[C@H](C(=O)N[C@@H](CCCCN)C(=O)N[C@@H](CCCCN)C(=O)N[C@H](C(=O)N[C@@H](C)C(=O)NCC(N)=O)C(C)C)C(C)C [A0] (H-GLFDIVKKVAG-NH2; N-terminus assumed) | >250 µg/mL | >250 µg/mL | no antibacterial activity | >250 µg/mL | >250 µg/mL | >250 µg/mL | >250 µg/mL | >250 µg/mL | >250 µg/mL | >250 µg/mL | >250 µg/mL | >250 µg/mL | >250 µg/mL | >250 µg/mL | >250 µg/mL |  |  |  |  |  | 
2 | CC(C)C[C@H](NC(=O)[C@@H](N)CCCNC(=N)N)C(=O)N[C@@H](Cc1ccccc1)C(=O)N[C@@H](CCCNC(=N)N)C(=O)N[C@@H](CCCNC(=N)N)C(=O)N[C@H](C(=O)N[C@@H](CCCCN)C(=O)N[C@@H](CCCCN)C(=O)N[C@H](C(=O)N[C@@H](C)C(=O)NCC(N)=O)C(C)C)C(C)C [A3] (H-RLFRRVKKVAG-NH2; N-terminus assumed) | >250 µg/mL | >250 µg/mL | no antibacterial activity | >250 µg/mL | >250 µg/mL | >250 µg/mL | >250 µg/mL | >250 µg/mL | >250 µg/mL | >250 µg/mL | >250 µg/mL | >250 µg/mL | >250 µg/mL | >250 µg/mL | 250 µg/mL (≈ 188 µM) |  |  |  |  |  | 
3 | CC[C@H](C)CCCCC(=O)N[C@@H](CCN)C(=O)N[C@H](C(=O)N[C@@H](CCN)C(=O)N[C@H]1CCNC(=O)[C@H]([C@@H](C)O)NC(=O)[C@H](CCN)NC(=O)[C@H](CCN)NC(=O)[C@H](CC(C)C)NC(=O)[C@@H](CC(C)C)NC(=O)[C@H](CCN)NC1=O)[C@@H](C)O [Colistin] (X1-[Dab]T[Dab][Dab][Dab][dL]L[Dab][Dab]T; lactam 4-C (inferred); N-terminus assumed) |  |  |  |  |  |  |  |  |  |  |  |  |  |  |  | ≤0.98 µg/mL | 1.95 µg/mL (≈ 1.67 µM) | 1.95 µg/mL (≈ 1.67 µM) | 1.95 µg/mL (≈ 1.67 µM) | 1.95 µg/mL (≈ 1.67 µM) | MIC [20]: 1.95 µg/mL (≈ 1.67 µM); MIC [21]: 1.95 µg/mL (≈ 1.67 µM); MIC [22]: 0.98 µg/mL (≈ 0.838 µM); MIC [23]: 0.98 µg/mL (≈ 0.838 µM); MIC [24]: 0.98 µg/mL (≈ 0.838 µM); MIC [25]: 1.95 µg/mL (≈ 1.67 µM); MIC [26]: 1.95 µg/mL (≈ 1.67 µM); MIC [27]: 1.95 µg/mL (≈ 1.67 µM); MIC [28]: 0.98 µg/mL (≈ 0.838 µM); MIC [29]: 0.98 µg/mL (≈ 0.838 µM)
4 | CC[C@H](C)[C@H](NC(=O)[C@H](CCCNC(=N)N)NC(=O)[C@H](CCCCN)NC(=O)[C@H](CCCCN)NC(=O)[C@@H](NC(=O)[C@H](CCCCN)NC(=O)[C@H](CCC(=O)O)NC(=O)[C@H](CCCCN)NC(=O)[C@@H](N)CCCNC(=N)N)[C@@H](C)CC)C(=O)NCC(=O)N[C@@H](CCCCN)C(=O)N[C@H](C(=O)N[C@@H](CC(=O)O)C(=O)N[C@@H](CCCNC(=N)N)C(=O)N[C@@H](CC(C)C)C(N)=O)[C@@H](C)CC [P0] (H-RKEKIKKRIGKIDRL-NH2; N-terminus assumed) | >250 µg/mL | >250 µg/mL | no antibacterial activity | >250 µg/mL | >250 µg/mL | >250 µg/mL | >250 µg/mL | >250 µg/mL | >250 µg/mL | >250 µg/mL | >250 µg/mL | >250 µg/mL | >250 µg/mL | >250 µg/mL | >250 µg/mL |  |  |  |  |  | 
5 | Gentamycin |  |  |  |  |  |  |  |  |  |  |  |  |  |  |  | ≤0.98 µg/mL | >125 µg/mL | >125 µg/mL | >125 µg/mL | >125 µg/mL | MIC [20]: 125 µg/mL; MIC [21]: >125 µg/mL; MIC [22]: 125 µg/mL; MIC [23]: >125 µg/mL; MIC [24]: >125 µg/mL; MIC [25]: >125 µg/mL; MIC [26]: >125 µg/mL; MIC [27]: 125 µg/mL; MIC [28]: >125 µg/mL; MIC [29]: >125 µg/mL
